Source: the supplement of paper PMC13380429

Experiments:
Conditions in all cases: 72 h
HepG2 [1] = assay: cell viability relative to DMSO; higher = less toxic
Caco-2 [2] = assay: as above
U2OS [3] = assay: as above
Calu-3 [4] = assay: as above
Vero E6 [5] = assay: as above
HepG2 [6] = assay: relative viability EC50 (midpoint between 100% and the lowest measured viability); higher = less toxic
Caco-2 [7] = assay: as above
U2OS [8] = assay: as above
Calu-3 [9] = assay: as above
Vero E6 [10] = assay: as above
HepG2 [11] = assay: drug sensitivity score (DSS) for viability; higher = more toxic; extreme values may be limits of the assay
Caco-2 [12] = assay: as above
U2OS [13] = assay: as above
Calu-3 [14] = assay: as above
Vero E6 [15] = assay: as above

Compound | cell viability (HepG2 [1]; 1 nM) [%] | cell viability (HepG2 [1]; 10 nM) [%] | cell viability (HepG2 [1]; 100 nM) [%] | cell viability (HepG2 [1]; 1000 nM) [%] | cell viability (HepG2 [1]; 10000 nM) [%] | cell viability (Caco-2 [2]; 1 nM) [%] | cell viability (Caco-2 [2]; 10 nM) [%] | cell viability (Caco-2 [2]; 100 nM) [%] | cell viability (Caco-2 [2]; 1000 nM) [%] | cell viability (Caco-2 [2]; 10000 nM) [%] | cell viability (U2OS [3]; 1 nM) [%] | cell viability (U2OS [3]; 10 nM) [%] | cell viability (U2OS [3]; 100 nM) [%] | cell viability (U2OS [3]; 1000 nM) [%] | cell viability (U2OS [3]; 10000 nM) [%] | cell viability (Calu-3 [4]; 1 nM) [%] | cell viability (Calu-3 [4]; 10 nM) [%] | cell viability (Calu-3 [4]; 100 nM) [%] | cell viability (Calu-3 [4]; 1000 nM) [%] | cell viability (Calu-3 [4]; 10000 nM) [%] | cell viability (Vero E6 [5]; 1 nM) [%] | cell viability (Vero E6 [5]; 10 nM) [%] | cell viability (Vero E6 [5]; 100 nM) [%] | cell viability (Vero E6 [5]; 1000 nM) [%] | cell viability (Vero E6 [5]; 10000 nM) [%] | relative viability EC50 (HepG2 [6]) [µM] | relative viability EC50 (Caco-2 [7]) [µM] | relative viability EC50 (U2OS [8]) [µM] | relative viability EC50 (Calu-3 [9]) [µM] | relative viability EC50 (Vero E6 [10]) [µM] | drug sensitivity score (HepG2 [11]) | drug sensitivity score (Caco-2 [12]) | drug sensitivity score (U2OS [13]) | drug sensitivity score (Calu-3 [14]) | drug sensitivity score (Vero E6 [15])
CC(C)(C)NCC(O)COc1cccc2[nH]c(=O)[nH]c12 (stereo not given) | 97.7 | 93.3 | 105 | 110 | 113 | 96.7 | 100 | 96.5 | 97 | 97.9 | 96.8 | 97 | 97.4 | 97.9 | 101 | 94.9 | 101 | 88.6 | 106 | 106 | 98.7 | 97.2 | 97.1 | 103 | 105 | > 10 | > 10 | > 10 | > 10 | > 10 | 0 | 0 | 0 | 0 | 0
CC1(C)N=C(N)N=C(N)N1OCCCOc1cc(Cl)c(Cl)cc1Cl | 104 | 93.8 | 93.9 | 99.5 | 98.7 | 99.7 | 91.5 | 95.5 | 102 | 99.6 | 99.3 | 93.9 | 99.1 | 95.7 | 95 | 100 | 96.1 | 93.8 | 93.7 | 100 | 94.7 | 96.8 | 95.3 | 98 | 108 | > 10 | > 10 | > 10 | > 10 | > 10 | 0 | 0 | 0 | 0 | 0
CCCCOc1ccc(C(=O)Nc2ccc(F)cc2F)cc1 | 100 | 98.2 | 101 | 90.7 | 97.6 | 105 | 106 | 104 | 92.6 | 96.5 | 98.1 | 98.2 | 101 | 96.6 | 99.5 | 107 | 97.1 | 109 | 99.2 | 95.5 | 99.2 | 102 | 98.4 | 99.7 | 101 | > 10 | > 10 | > 10 | > 10 | > 10 | 0 | 0 | 0 | 0 | 0
CCN(c1cc(C#CCN2CCOCC2)cc(C(=O)NCc2c(C)cc(C)[nH]c2=O)c1C)[C@H]1CC[C@H](N(C)CCOC)CC1 | 92.7 | 122 | 112 | 105 | 91.2 | 92.5 | 103 | 86.4 | 95.3 | 91.6 | 94.3 | 95.7 | 96.4 | 97.7 | 103 | 97.6 | 95.3 | 108 | 103 | 103 | 107 | 96.9 | 95.9 | 96.8 | 102 | > 10 | > 10 | > 10 | > 10 | > 10 | 0 | 0 | 0 | 0 | 0
CCn1c(N)c(C(=O)NC)c(=O)c2ccc(C#C[C@@](C)(O)COC)nc21 | 92.6 | 102 | 93.2 | 105 | 104 | 105 | 92.8 | 104 | 94.2 | 92.5 | 102 | 96.9 | 98.3 | 97.8 | 97.4 | 89.4 | 100 | 103 | 98.3 | 109 | 94.1 | 98.6 | 94.8 | 99.1 | 104 | > 10 | > 10 | > 10 | > 10 | > 10 | 0 | 0 | 0 | 0 | 0
CN(C)Cc1c(C(=O)NCCOc2ccc(C(=O)NO)cc2)oc2ccccc12 | 98.9 | 92.7 | 76.5 | 11.4 | 0.1 | 90.2 | 101 | 89.2 | 23.6 | 1.4 | 96.9 | 101 | 82.4 | 15.8 | 1.3 | 95.3 | 93.2 | 73.5 | 31.9 | 8.2 | 97.4 | 96.2 | 95.7 | 38.2 | -0.1 | 0.231 | 0.425 | 0.292 | 0.276 | 0.738 | 19 | 15.6 | 17.6 | 16.1 | 13
CN(CCOc1ccc(-c2ccc3c(c2)OCO3)cc1C(C)(C)C)CC(=O)O | 95.8 | 89.7 | 110 | 92.9 | 110 | 104 | 102 | 94.2 | 92.8 | 89.8 | 93.9 | 98.5 | 97.5 | 101 | 100 | 100 | 95.1 | 93.9 | 103 | 107 | 99.3 | 97.6 | 97.6 | 95.3 | 98.7 | > 10 | > 10 | > 10 | > 10 | > 10 | 0 | 0 | 0 | 0 | 0
CO[C@@H](C)Cn1c(=O)n(C)c2cnc3ccc(-c4cncc(C(C)(C)O)c4)cc3c21 | 94.4 | 99.7 | 95.8 | 56.9 | 14.8 | 97.2 | 93.4 | 82.4 | 35.6 | 25.9 | 108 | 102 | 84 | 25.7 | 8.3 | 108 | 89.8 | 68 | 26.9 | 18 | 96.4 | 101 | 87.2 | 54.3 | 28.9 | 0.974 | 0.238 | 0.331 | 0.144 | 0.514 | 9.8 | 14 | 15.7 | 17.4 | 10.2
COc1cc(N2CCC(N(C)C)CC2)ccc1Nc1ncc(Cl)c(Nc2ccccc2P(C)(C)=O)n1 | 105 | 107 | 92.9 | 61.3 | 14.4 | 93.9 | 95.2 | 94.8 | 79.4 | 41.9 | 98.2 | 100 | 102 | 83.4 | 0.5 | 97.9 | 97.2 | 93.8 | 51.7 | 5.6 | 101 | 105 | 103 | 100 | 25.6 | 1.11 | 1.37 | 1.9 | 0.943 | 3.17 | 9.2 | 5.6 | 8.2 | 10.9 | 4.1
COc1ccc(CNC(=O)c2sc3nc(C)cc(C)c3c2N)cc1 | 83.3 | 94.4 | 93.9 | 91.9 | 107 | 95.8 | 96.7 | 93.6 | 97.1 | 93.5 | 94.1 | 92.1 | 92.5 | 96.4 | 94.7 | 98.7 | 98.8 | 98.2 | 97.6 | 101 | 95.8 | 101 | 106 | 93.2 | 94.4 | > 10 | > 10 | > 10 | > 10 | > 10 | 0 | 0 | 0 | 0 | 0
COc1ccc(Nc2ncnc3ccc(OC)cc23)cc1 | 106 | 98.3 | 93.5 | 93 | 83 | 105 | 102 | 101 | 99.5 | 91.3 | 101 | 102 | 103 | 99 | 106 | 93.9 | 108 | 95.4 | 89.6 | 77.5 | 102 | 106 | 99.6 | 100 | 85.2 | > 10 | > 10 | > 10 | > 10 | > 10 | 0.6 | 0 | 0 | 1.5 | 0.2
Cc1cc(NC(=O)Nc2ccc(N(C)C)cc2)c2cc(F)cc(F)c2n1 | 103 | 93.7 | 96.4 | 93.1 | 80.1 | 100 | 103 | 99.8 | 89.5 | 91.6 | 98.4 | 104 | 99.8 | 103 | 91.9 | 95.2 | 98.8 | 101 | 105 | 94.7 | 101 | 95.8 | 100 | 97.9 | 100 | > 10 | > 10 | > 10 | > 10 | > 10 | 0.8 | 0.1 | 0 | 0 | 0
Cc1ccc(NC(=O)c2cccc(N(C)C)c2)cc1NC(=O)c1ccc(O)cc1 | 98.8 | 97.7 | 105 | 94.3 | 84.1 | 101 | 102 | 89 | 93.6 | 81.8 | 104 | 100 | 99.5 | 97 | 104 | 104 | 104 | 91.7 | 94.7 | 99 | 101 | 99.8 | 98.4 | 101 | 102 | > 10 | > 10 | > 10 | > 10 | > 10 | 0.8 | 0.8 | 0 | 0 | 0
Cn1cc(-c2ccc3nnc(C(F)(F)c4ccc5ncccc5c4)n3n2)cn1 | 102 | 94.3 | 105 | 109 | 104 | 105 | 96 | 95.3 | 95.9 | 92.3 | 104 | 101 | 101 | 95.5 | 96.9 | 97.4 | 104 | 89.6 | 108 | 106 | 99.9 | 107 | 101 | 97.8 | 92.4 | > 10 | > 10 | > 10 | > 10 | > 10 | 0 | 0 | 0 | 0 | 0
N=C(C[C@@H](O)COc1ccccc1-c1ccccc1)N1CCCCC1 | 92.8 | 94.5 | 109 | 84.4 | 101 | 95.7 | 100 | 81.8 | 96.6 | 89.5 | 99.9 | 103 | 96.8 | 102 | 92.8 | 100 | 98.2 | 90.1 | 104 | 83.6 | 97.5 | 102 | 96.6 | 96.8 | 102 | > 10 | > 10 | > 10 | > 10 | > 10 | 0 | 0 | 0 | 0.2 | 0
